Reference: US20070275887A1, “Method of Inhibiting Secretase Activity” (priority 2003, published 2007)
One block for each molecule: values may come before it. Non-standard residues stand in square brackets, D forms with d. Residues, ends and D or L forms follow the SMILES beside them. *: point of attachment. Nle = CCCC[C@H](N)C(=O)O; Cbz = O=C(OCc1ccccc1)*

How the values were obtained:
[1] = system: Embryonic fibroblasts (MEFs) from wild-type and synoviolin gene-deficient mice; assay: Effect of a γ-secretase inhibitor on cell proliferation activity (Alamer Blue) in wild-type and synoviolin-deficient MEFs; assay type: cell-based, mouse; conditions: MEFs 1×10^3 cells/well, treated 24 hours, Alamer Blue absorbance after 2 hours; Syno −/− compared with Syno +/+ (FIG. 5)
Experimental: Since there are ethical objections to sensitivity measurement tests using the brains of Alzheimer's patients, another evaluation system needs to be used for evaluating the sensitivity of the secretase inhibitor. The inventors therefore used an evaluation system in which cells were treated with a secretase inhibitor and cell proliferation was used as the marker of secretase inhibition. There are no particular limits on the type of secretase here, and examples include β-secretase and γ-secretase. Consequently, the secretase inhibitor can be either a β-secretase inhibitor or a γ-secretase inhibitor. There are no particular limits on the secretase inhibitor, and examples include L-685,458 (Peptide Institute), (3,5-Difluorophenylacetyl)-Ala-Phg-OBu^t [DAPT] (Peptide Institute), Lys-Thr-Glu-Glu-Ile-Ser-Glu-Val-Asn-Sta-Val-Ala-Glu-Phe (Peptide Institute), Z-Leu-Leu-Nle-CHO (Wako) and the like.
Secretase activity is judged to have been inhibited when cell proliferation activity is suppressed. […]
Embryonic fibroblasts (MEFs) obtained from synoviolin gene-introduced mice (wild-type mice) and synoviolin gene-deficient mice were inoculated to 1×10^3 cells/well on 96-well plates, and cultured overnight. After culture the cells were treated with a γ-secretase inhibitor (Z-Leu-Leu-Nle-CHO, Wako) and cultured for 24 hours, after which Alamer Blue was added and absorbance was measured after 2 hours.

FLAG-tagged synoviolin = molecular target: T1, FLAG-tagged synoviolin (human, UniProt Q86TM6 1-617); assay: co-immunoprecipitation (anti-HA or anti-FLAG) and Western blotting from HEK293T cells
T1 construct: not shown: FLAG tag
T1 sequence (Q86TM6 whole entry E545G): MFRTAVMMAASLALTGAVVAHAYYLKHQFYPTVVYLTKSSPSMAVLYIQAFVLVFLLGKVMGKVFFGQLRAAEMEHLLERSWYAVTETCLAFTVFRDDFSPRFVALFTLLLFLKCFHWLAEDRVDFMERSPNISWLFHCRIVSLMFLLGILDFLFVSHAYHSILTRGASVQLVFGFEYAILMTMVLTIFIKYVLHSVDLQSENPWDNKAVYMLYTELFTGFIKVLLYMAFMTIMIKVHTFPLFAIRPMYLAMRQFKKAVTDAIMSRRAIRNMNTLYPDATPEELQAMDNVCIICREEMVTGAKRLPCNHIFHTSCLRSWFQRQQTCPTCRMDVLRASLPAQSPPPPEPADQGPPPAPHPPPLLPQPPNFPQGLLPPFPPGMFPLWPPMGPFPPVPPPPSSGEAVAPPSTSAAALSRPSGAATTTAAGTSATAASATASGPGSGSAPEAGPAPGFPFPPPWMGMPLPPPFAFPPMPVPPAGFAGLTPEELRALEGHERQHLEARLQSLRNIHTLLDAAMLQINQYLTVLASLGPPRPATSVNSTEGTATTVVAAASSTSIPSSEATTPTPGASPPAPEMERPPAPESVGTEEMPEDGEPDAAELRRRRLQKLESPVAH
Experimental: An HA tag was attached to the N-terminal of this gene, which was inserted into a pcDNA3 vector. Next, Ha-tagged Herp, Herp(-bind) and a blank vector were each strongly expressed together with FLAG-tagged synoviolin in HEK293T cells. After 24 hours whole cell extract (WCE) was extracted, expression of each protein was confirmed, and immunoprecipitation was performed with anti-HA antibodies or anti-FLAG antibodies.

Molecule: CCCC[C@@H](C=O)NC(=O)[C@H](CC(C)C)NC(=O)[C@H](CC(C)C)NC(=O)OCc1ccccc1 [Z-Leu-Leu-Nle-CHO] (Cbz-Leu-Leu-[Nle]-aldehyde)
- effect of the γ-secretase inhibitor on cell proliferation activity [1]: greater in the cells derived from synoviolin-deficient mice than in the cells derived from wild-type mice

- binding result (FLAG-tagged synoviolin): no binding
B1: HA-tagged Herp(-bind) (other)
chain: MESETEPEPVTLLVKSPNQRHRDLELSGDRGWSVGHLKAHLSRVYPERPRPEDQRLIYSGKLLLDHQCLRDLLPKQEKRHVLHLVCNVKSPSKMPEINAKVAESTEEPAGSNRGQYPEDSSSDGLRQREVLRNLSSPGWENISRPEAAQQAFQGLGPGFSAQEIPVVSAPAPAPIHNQFPAENQPANQNAAPQVVVNPGANQNLRMNAQGGPIVEEDDEINRDWLDWTYSAATFSVFLSILYFYSSLSRFLMVMGATVVMYLHHVGWFPFRPRPVQNFPNDGPPPDVVNQDPNNNLQEGTDPETEDPNHLPPDRDVLDGEQTSPSFMSTAWLVFKTFFASLLPEGPPAIAN
notes: not shown: HA tag at the N-terminal
